{"source": "patent US20250134855A1", "about": "“CO[…] AND METHODS OF USING SAME” (LYKOS THERAPEUTICS, INC., priority 2022, published 2025)", "key": {"[1]": {"test_system": "MDMA-AT trial participants (MAPP1 and MAPP2)", "assay": "MPLONG long-term follow-up: CAPS-5 durability, responder analysis, relapse", "assay_type": "in vivo, human", "details": "MPLONG, MAPP2 participants only", "excerpt": "MPLONG is an observational long-term follow-up study for MDMA-AT trial participants intended to provide data on treatment durability as measured by the CAPS-5 and Sheehan Disability Scale (SDS). Participants who elect to enroll in MPLONG completed a LTFU visit at least 6 months following their completion of the parent study. MPLONG opened for enrollment 8 months following the last subject visit of the MAPP1 trial and MAPP1 participants entered MPLONG unblinded to their treatment assignment. Enrollees from the second Phase 3 trial MAPP2, however, complete LTFU with blinding maintained.\nA sensitivity analysis was conducted to determine whether there was a detectable difference in the observed trend dependent on the time elapsed since the parent study (Table 47 (Table 47 (Table 47). There was no observable impact of the time window, as durability was maintained in both those with LFTU within a year and those with LTFU greater than 12 months after study termination."}, "[2]": {"test_system": "participants with PTSD of moderate or greater severity", "assay": "MAPP2 Phase 3: safety, adverse events", "assay_type": "in vivo, human", "protocol": "MAPP2 was a Phase 3 randomized, placebo-controlled, 2-arm, double-blind, multi-site study conducted to investigate the efficacy and safety of MDMA-AT in participants with PTSD of moderate or greater severity. This study included 3 experimental sessions of therapy combined with either MDMA or placebo. During Experimental Session 1, participants received a split dose of 120 mg (80 mg+40 mg). Participants received an escalated split dose of 180 mg during Experimental Sessions 2 and 3 unless there were tolerability issues or the participant declined.\nOverall, 102 (98.1%) participants reported at least 1 TEAE during the study period (Table 52riod (Table 52riod (Table 52). Of these, 2 (3.9%) participants from the placebo group were discontinued due to TEAE (abdominal pain and suicidal ideation). There were no serious TEAEs or deaths reported during the study. Adverse events of special interest included a subset of AEs involving cardiac function, suicidality, and MDMA abuse. There were 6 (11.3%) participants in the MDMA group and 3 (5.9%) participants in the placebo group with an TEAE of special interest. AESIs related to suicidality were reported in 2 MDMA participants and 2 placebo participants. AESIs related to cardiac function were reported in 4 MDMA participants and 1 placebo participant (all palpitations). […] A listing of all TEAEs from MDMA-AT group with ≥5% incidence and twice the prevalence of placebo group is provided below in Table 44 Table 44 Table 44."}}, "data": [{"compound": "CNC(C)Cc1ccc2c(c1)OCO2", "note": "(stereo not drawn) [MDMA, 3,4-methylenedioxymethamphetamine]", "values": [{"measurement": "CAPS-5 Total Severity Score, Actual, Median", "setting": "[1]; parent study Baseline", "result": 38.5}, {"measurement": "CAPS-5 Total Severity Score, Actual, Mean", "setting": "[1]; parent study Visit 8", "result": 28.1}, {"measurement": "CAPS-5 Total Severity Score, Actual, Median", "setting": "[1]; parent study Visit 8", "result": 30.5}, {"measurement": "CAPS-5 Total Severity Score, CFB, Mean", "setting": "[1]; parent study Visit 8", "result": "−11.3"}, {"measurement": "CAPS-5 Total Severity Score, CFB, Median", "setting": "[1]; parent study Visit 8", "result": "−12.0"}, {"measurement": "CAPS-5 Total Severity Score, Actual, Mean", "setting": "[1]; parent study Visit 13", "result": 19.7}, {"measurement": "CAPS-5 Total Severity Score, Actual, Median", "setting": "[1]; parent study Visit 13", "result": 18.0}, {"measurement": "CAPS-5 Total Severity Score, CFB, Mean", "setting": "[1]; parent study Visit 13", "result": "−19.8"}, {"measurement": "CAPS-5 Total Severity Score, CFB, Median", "setting": "[1]; parent study Visit 13", "result": "−22.0"}, {"measurement": "CAPS-5 Total Severity Score, Actual, Mean", "setting": "[1]; parent study Visit 19", "result": 14.8}, {"measurement": "CAPS-5 Total Severity Score, Actual, Median", "setting": "[1]; parent study Visit 19", "result": 12.0}, {"measurement": "CAPS-5 Total Severity Score, CFB, Mean", "setting": "[1]; parent study Visit 19", "result": "−24.5"}, {"measurement": "CAPS-5 Total Severity Score, CFB, Median", "setting": "[1]; parent study Visit 19", "result": "−27.0"}, {"measurement": "AESIs of MDMA abuse", "setting": "[2]; MAPP2", "result": "no AESIs of MDMA abuse"}, {"measurement": "TEAE Abdominal pain upper, %", "setting": "[2]; MAPP2", "result": "(9.4) %"}, {"measurement": "TEAE Bruxism, %", "setting": "[2]; MAPP2", "result": "(13.2) %"}, {"measurement": "TEAE Chest discomfort, %", "setting": "[2]; MAPP2", "result": "(17.0) %"}, {"measurement": "TEAE Chills, %", "setting": "[2]; MAPP2", "result": "(15.1) %"}, {"measurement": "TEAE Decreased appetite, %", "setting": "[2]; MAPP2", "result": "(35.8) %"}, {"measurement": "TEAE Dissociation, %", "setting": "[2]; MAPP2", "result": "(5.7) %"}, {"measurement": "TEAE Dry mouth, %", "setting": "[2]; MAPP2", "result": "(17.0) %"}, {"measurement": "TEAE Feeling abnormal, %", "setting": "[2]; MAPP2", "result": "(9.4) %"}, {"measurement": "TEAE Feeling cold, %", "setting": "[2]; MAPP2", "result": "(20.8) %"}, {"measurement": "TEAE Feeling hot, %", "setting": "[2]; MAPP2", "result": "(26.4) %"}, {"measurement": "TEAE Feeling jittery, %", "setting": "[2]; MAPP2", "result": "(15.1) %"}, {"measurement": "TEAE Feeling of body temperature change, %", "setting": "[2]; MAPP2", "result": "(9.4) %"}, {"measurement": "TEAE Flushing, %", "setting": "[2]; MAPP2", "result": "(5.7) %"}, {"measurement": "TEAE Gait disturbance, %", "setting": "[2]; MAPP2", "result": "(5.7) %"}, {"measurement": "TEAE Heart rate increased, %", "setting": "[2]; MAPP2", "result": "(5.7) %"}, {"measurement": "TEAE Hyperhidrosis, %", "setting": "[2]; MAPP2", "result": "(34.0) %"}, {"measurement": "TEAE Hypoaesthesia, %", "setting": "[2]; MAPP2", "result": "(9.4) %"}, {"measurement": "TEAE Muscle spasms, %", "setting": "[2]; MAPP2", "result": "(7.5) %"}, {"measurement": "TEAE Muscle tightness, %", "setting": "[2]; MAPP2", "result": "(58.8) %"}, {"measurement": "TEAE Mydriasis, %", "setting": "[2]; MAPP2", "result": "(11.3) %"}, {"measurement": "TEAE Nausea, %", "setting": "[2]; MAPP2", "result": "(45.3) %"}, {"measurement": "TEAE Nystagmus, %", "setting": "[2]; MAPP2", "result": "(13.2) %"}, {"measurement": "TEAE Palpitations, %", "setting": "[2]; MAPP2", "result": "(9.4) %"}, {"measurement": "TEAE Panic attack, %", "setting": "[2]; MAPP2", "result": "(5.7) %"}, {"measurement": "TEAE Paraesthesia, %", "setting": "[2]; MAPP2", "result": "(18.9) %"}, {"measurement": "TEAE Restlessness, %", "setting": "[2]; MAPP2", "result": "(15.1) %"}, {"measurement": "TEAE Thirst, %", "setting": "[2]; MAPP2", "result": "(7.5) %"}, {"measurement": "TEAE Tremor, %", "setting": "[2]; MAPP2", "result": "(11.3) %"}, {"measurement": "TEAE Vision blurred, %", "setting": "[2]; MAPP2", "result": "(15.1) %"}, {"measurement": "TEAE Visual impairment, %", "setting": "[2]; MAPP2", "result": "(5.7) %"}, {"measurement": "participants with an TEAE of special interest", "setting": "[2]; MAPP2", "result": 11.3, "unit": "%"}, {"measurement": "At least one TEAE of Special Interest, %", "setting": "[2]; MAPP2, Safety Set", "result": "(11.3) %"}, {"measurement": "At least one Treatment-emergent SAE Leading to Death, %", "setting": "[2]; MAPP2, Safety Set", "result": "(0.0) %"}, {"measurement": "At least one Treatment-emergent SAE, %", "setting": "[2]; MAPP2, Safety Set", "result": "(0.0) %"}, {"measurement": "Discontinued study treatment due to any TEAE(s), %", "setting": "[2]; MAPP2, Safety Set", "result": "(0.0) %"}, {"measurement": "Participants with at least 1 TEAE during Experimental Sessions and 2 Days Following, %", "setting": "[2]; MAPP2, Safety Set", "result": "(100.0) %"}, {"measurement": "Subjects with at least 1 Severe TEAE, %", "setting": "[2]; MAPP2, Safety Set", "result": "(9.4) %"}, {"measurement": "Subjects with at least 1 TEAE, %", "setting": "[2]; MAPP2, Safety Set", "result": "(100.0) %"}, {"measurement": "heart rate and blood pressure during experimental sessions", "setting": "[2]; MAPP2, dose-dependent, no clinical intervention required", "result": "transient increases"}, {"measurement": "participants with at least 1 temporally related TEAE", "setting": "[2]; MAPP2, during an experiment session or up to 2 days following", "result": "All participants"}]}]}
